Assay results from patent publication US8546389B2 (priority 2010, dated 2013).

How the values were obtained:
[1] = target: 1b (BK) NS5bΔ21 (Hepatitis C virus genotype 1b (isolate BK) (HCV), UniProt P26663); assay: HCV polymerase inhibition assay, genotype 1b; format: biochemical, HCV genotype 1b (BK); settings: 1b (BK) NS5bΔ21, 33P-GTP incorporation; read-out: 1b polymerase IC50 (range class)
Method in brief: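 NS5bΔ21 (50 nM) in Tris-HCl pH 7.5 with Mg2+/Mn2+, DTT, BSA, 0.5% DMSO, poly(rC) template, GTP at Km and ^33P-GTP; 3-fold compound dilutions. GTP-started reactions stopped with EDTA after 1 h; incorporation read by DEAE filter scintillation counting. IC50 by non-linear regression; 3a enzyme run the same way.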

[2] = tested on: genotype 1b (Con 1) subgenomic replicon cell line; assay: HCV replicon assay, genotype 1b (Renilla luciferase); format: cell-based, HCV genotype 1b (Con 1); settings: Hepatitis C virus; genotype 1b replicon, 72 hours, luciferase; read-out: genotype 1b EC50 (range class)
Method in brief: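 Subgenomic replicon cells expressing Renilla luciferase (1b Con1; 1a and 2a lines by the same method) seeded at 7000 cells/well (5000 for 2a) without G418, exposed to 3-fold compound dilutions for 72 h at 37 °C. Luciferase activity measured; EC50 by non-linear regression.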

1b (BK) NS5bΔ21, sequence (P26663 2420-2989): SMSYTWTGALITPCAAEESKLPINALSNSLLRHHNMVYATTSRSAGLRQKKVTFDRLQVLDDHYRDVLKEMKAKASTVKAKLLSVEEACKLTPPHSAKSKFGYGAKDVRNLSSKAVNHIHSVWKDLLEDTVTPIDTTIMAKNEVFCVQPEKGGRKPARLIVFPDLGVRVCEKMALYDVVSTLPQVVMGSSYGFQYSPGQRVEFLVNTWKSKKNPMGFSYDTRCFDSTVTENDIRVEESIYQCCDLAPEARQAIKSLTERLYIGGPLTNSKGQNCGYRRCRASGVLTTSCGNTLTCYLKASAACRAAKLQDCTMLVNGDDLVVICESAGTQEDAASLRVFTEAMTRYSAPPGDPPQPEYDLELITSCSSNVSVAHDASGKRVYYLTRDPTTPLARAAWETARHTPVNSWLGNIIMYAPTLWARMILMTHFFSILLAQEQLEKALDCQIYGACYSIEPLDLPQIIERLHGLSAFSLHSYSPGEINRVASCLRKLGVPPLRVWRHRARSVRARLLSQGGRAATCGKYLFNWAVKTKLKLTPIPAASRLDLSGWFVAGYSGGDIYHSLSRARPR

Compound | IC50 [1] [µM] | EC50 [2] [µM]
CC[C@H](c1cc2nn(-c3ccc(F)cc3)c(C(=O)NC)c2cc1C1CC1)S(C)(=O)=O (racemic) [Compound 240] | 10 to 50 | 10 to 50
CNC(=O)c1c2cc(C3CC3)c(N(CCCC(=O)O)S(C)(=O)=O)cc2nn1-c1ccc(C)cc1 [Compound 229] | < 0.99 | 10 to 50
CNC(=O)c1c2cc(C3CC3)c(N(CCCNC(=O)c3cnoc3)S(C)(=O)=O)cc2nn1-c1ccc(Br)cc1 [Compound 168] | < 0.99 | < 0.99
CNC(=O)c1c2cc(C3CC3)c(N(CC3CCOCC3)S(C)(=O)=O)cc2nn1-c1ccc(Cl)cc1 [Compound 249] | < 0.99 | < 0.99
CCN(c1cc2nn(-c3ccc(Nc4ccccc4F)cc3)c(C(=O)NC)c2cc1OC)S(C)(=O)=O [Compound 123] | 1 to 9.99 | < 0.99
CNC(=O)c1c2cc(C3CC3)c(N(CCNC(C)=O)S(C)(=O)=O)cc2nn1-c1ccc(Oc2ccc(F)cc2)cc1 [Compound 36] | 1 to 9.99 | 1 to 9.99
CNC(=O)c1c2cc(C3CC3)c(N(C3CCNCC3)S(C)(=O)=O)cc2nn1-c1ccc(Br)cc1 [Compound 107, 2-(4-bromophenyl)-5-cyclopropyl-N-methyl-6-[methylsulfonyl(piperidin-4-yl)-amino]-2H-indazole-3-carboxamide] | 1 to 9.99 | 1 to 9.99
CNC(=O)c1c2cc(C3CC3)c(N(CCCC(=O)OC)S(C)(=O)=O)cc2nn1-c1ccc(Cl)cc1 [Compound 207] | < 0.99 | 1 to 9.99
CNC(=O)c1c2cc(C3CC3)c(N3CCCC3=O)cc2nn1-c1ccc(NCC(C)C)cc1 [Compound 105, 5-cyclopropyl-N-methyl-2-{4-[(2-methylpropyl)amino]phenyl}-6-(2-oxopyrrolidin-1-yl)-2H-indazole-3-carboxamide] | 10 to 50 | 1 to 9.99
CNC(=O)c1c2cc(C3CC3)c(N(CCC3CCOC3)S(C)(=O)=O)cc2nn1-c1ccc(Cl)cc1 (stereo not shown) [Compound 257] | 1 to 9.99 | < 0.99
CNC(=O)c1c2cc(C3CC3)c(N(CCCO)S(C)(=O)=O)cc2nn1-c1ccc(NCC(C)C)cc1 [Compound 122] | 1 to 9.99 | < 0.99
CCCNC(=O)CCN(c1cc2nn(-c3ccc(Br)cc3)c(C(=O)NC)c2cc1C1CC1)S(C)(=O)=O [Compound 165] | 1 to 9.99 | 1 to 9.99
CNC(=O)c1c2cc(C3CC3)c(N(CCCN(C)C)S(C)(=O)=O)cc2nn1-c1ccc(Br)cc1 [Compound 65, 2-(4-Bromophenyl)-5-cyclopropyl-6-{[3-(dimethylamino)propyl] (methylsulfonyl)amino}-N-methyl-2H-indazole-3-carboxamide] | < 0.99 | < 0.99
CCN(c1cc2nn(-c3ccc(F)cc3)c(C(=O)NC)c2cc1C1CC1)S(C)(=O)=O [Compound 138] | < 0.99 | < 0.99
CNC(=O)c1c2cc(C3CC3)c(N(CCCNC(=O)CN)S(C)(=O)=O)cc2nn1-c1ccc(Br)cc1 [Compound 133] | < 0.99 | 1 to 9.99
CCN(c1cc2nn(-c3ccc(F)cc3)c(C(=O)NC)c2cc1-c1csc(C)n1)S(C)(=O)=O [Compound 163] | 10 to 50 | 1 to 9.99
CNC(=O)c1c2cc(OC)c(N(CCCO)S(C)(=O)=O)cc2nn1-c1ccc(Nc2ccccc2F)cc1 [Compound 126] | 1 to 9.99 | 1 to 9.99
CNC(=O)c1c2cc(C3CC3)c(N(CCCNC(=O)[C@H]3CC=CC[C@H]3C(=O)O)S(C)(=O)=O)cc2nn1-c1ccc(Br)cc1 [Compound 188] | < 0.99 | < 0.99
CNC(=O)c1c2cc(C3CC3)c(N(CCCO)S(C)(=O)=O)cc2nn1-c1ccc(COC(C)C)cc1 [Compound 79, 5-Cyclopropyl-6-[(3-hydroxypropyl)(methylsulfonyl)amino]-N-methyl-2-{4-[(propan-2-yloxy)methyl]phenyl}-2H-indazole-3-carboxamide] | 1 to 9.99 | 1 to 9.99
CNC(=O)c1c2cc(C3CC3)c(N3CCCCC3=O)cc2nn1-c1ccc(Nc2ccc(F)cc2)cc1 [Compound 127] | 10 to 50 | 1 to 9.99
CNC(=O)c1c2cc(C3CC3)c(N(C3CCN(S(C)(=O)=O)C3)S(C)(=O)=O)cc2nn1-c1ccc(Br)cc1 (stereo not shown) [Compound 52, 2-(4-bromophenyl)-5-cyclopropyl-N-methyl-6-{(methylsulfonyl)[1-(methylsulfonyl)pyrrolidin-3-yl]amino}-2H-indazole-3-carboxamide] | < 0.99 | < 0.99

Compound | IC50 [1] [µM] | EC50 [2] [µM]
CC=Cc1cc2c(C(=O)NC)n(-c3ccc(F)cc3)nc2cc1N(CC)S(C)(=O)=O [Compound 144] | 1 to 9.99 | 1 to 9.99
CCNC(=O)CCCN(c1cc2nn(-c3ccc(Br)cc3)c(C(=O)NC)c2cc1C1CC1)S(C)(=O)=O [Compound 184] | < 0.99 | 1 to 9.99
CNC(=O)c1c2cc(C3CC3)c(N(CCC(CO)CO)S(C)(=O)=O)cc2nn1-c1ccc(Br)cc1 [Compound 96, 2-(4-bromophenyl)-5-cyclopropyl-6-{[4-hydroxy-3-(hydroxymethyl)butyl] (methylsulfonyl)amino}-N-methyl-2H-indazole-3-carboxamide] | < 0.99 | < 0.99
CNC(=O)c1c2cc(C3CC3)c(N(CCOC)S(C)(=O)=O)cc2nn1-c1ccc(Br)cc1 [Compound 232] | 1 to 9.99 | < 0.99
CCOC(=O)CN(c1cc2nn(-c3ccc(Br)cc3)c(C(=O)NC)c2cc1C1CC1)S(C)(=O)=O [Compound 141] | 1 to 9.99 | 10 to 50
CNC(=O)c1c2cc(C3CC3)c(N(CCCNC(=O)CCC(=O)NC(C)C)S(C)(=O)=O)cc2nn1-c1ccc(Br)cc1 [Compound 67] | < 0.99 | 1 to 9.99
CNC(=O)c1c2cc(C3CC3)c(N(CCCC(=O)NS(=O)(=O)N(C)C)S(C)(=O)=O)cc2nn1-c1ccc(Br)cc1 [Compound 198] | < 0.99 | 1 to 9.99
CNC(=O)c1c2cc(C3CC3)c(N(CCCN3C(=O)c4ccccc4C3=O)S(C)(=O)=O)cc2nn1-c1ccc(Br)cc1 [Compound 169] | < 0.99 | < 0.99
CCN(c1cc2nn(-c3ccc(F)cc3)c(C(=O)NC)c2cc1C#CCO)S(C)(=O)=O [Compound 75, 6-[Ethyl(methylsulfonyl)amino]-2-(4-fluorophenyl)-5-(3-hydroxyprop-1-yn-1-yl)-N-methyl-2H-indazole-3-carboxamide] | 1 to 9.99 | 10 to 50
CCOC(=O)CCCC(c1cc2nn(-c3ccc(C)cc3)c(C(=O)NC)c2cc1C1CC1)S(C)(=O)=O (racemic) [Compound 85, ethyl 5-[5-cyclopropyl-3-(methylcarbamoyl)-2-(4-methylphenyl)-2H-indazol-6-yl]-5-(methylsulfonyl)pentanoate] | 10 to 50 | 10 to 50
CNC(=O)c1c2cc(C3CC3)c(N(CCCN3C(=O)CCC3=O)S(C)(=O)=O)cc2nn1-c1ccc(Br)cc1 [Compound 69, 2-(4-bromophenyl)-5-cyclopropyl-6-{[3-(2,5-dioxopyrrolidin-1-yl)propyl](methylsulfonyl)amino}-N-methyl-2H-indazole-3-carboxamide] | < 0.99 | < 0.99
CNC(=O)c1c2cc(C3CC3)c(-c3c(C)noc3C)cc2nn1-c1ccc(C)cc1 [Compound 226] | 10 to 50 | 1 to 9.99
CCN(c1cc2nn(-c3ccc(F)cc3)c(C(=O)NC)c2cc1OCC#N)S(C)(=O)=O [Compound 170] | < 0.99 | < 0.99
CNC(=O)c1c2cc(C3CC3)c(N(CCC3CCOC3)S(C)(=O)=O)cc2nn1-c1ccc(Br)cc1 (stereo not shown) [Compound 256] | < 0.99 | < 0.99
CNC(=O)c1c2cc(C3CC3)c(N(CCCNC(=O)[C@H]3CCC[C@H]3C(=O)O)S(C)(=O)=O)cc2nn1-c1ccc(Br)cc1 [Compound 63, (1R,2S)-2-[(3-{[2-(4-Bromophenyl)-5-cyclopropyl-3-(methylcarbamoyl)-2H-indazol-6-yl](methylsulfonyl)amino}propyl)carbamoyl]cyclopentanecarboxylic acid] | < 0.99 | < 0.99
CNC(=O)c1c2cc(C3CC3)c(N(CCCOC)S(C)(=O)=O)cc2nn1-c1ccc(Br)cc1 [Compound 213] | < 0.99 | < 0.99
CNC(=O)c1c2cc(C3CC3)c(N(CCCN3CCNC3=O)S(C)(=O)=O)cc2nn1-c1ccc(Br)cc1 [Compound 70, 2-(4-Bromophenyl)-5-cyclopropyl-N-methyl-6-{(methylsulfonyl)[3-(2-oxoimidazolidin-1-yl)propyl]amino}-2H-indazole-3-carboxamide] | < 0.99 | 1 to 9.99
CNC(=O)c1c2cc(C3CC3)c(N(CCCNC(=O)CCOC)S(C)(=O)=O)cc2nn1-c1ccc(Br)cc1 [Compound 161] | < 0.99 | < 0.99
CCOC(=O)CCCN(c1cc2nn(-c3ccc(Br)cc3)c(C(=O)NC)c2cc1C1CC1)S(C)(=O)=O [Compound 88, Ethyl 4-{[2-(4-bromophenyl)-5-cyclopropyl-3-(methylcarbamoyl)-2H-indazol-6-yl](methylsulfonyl)amino}butanoate] | < 0.99 | < 0.99
CNC(=O)c1c2cc(C3CC3)c(N(CCCNC(=O)CCC(=O)O)S(C)(=O)=O)cc2nn1-c1ccc(Nc2ccc(F)cc2)cc1 [Compound 58, 4-[(3-{[5-Cyclopropyl-2-{4-[(4-fluorophenyl)amino]phenyl}-3-(methylcarbamoyl)-2H-indazol-6-yl](methylsulfonyl)amino}propyl)amino]-4-oxobutanoic acid] | < 0.99 | 10 to 50
